For series [1], the system named is human immunodeficiency virus type 1 IIIB strain (HIV-1IIIB). Kind of series: Cell protection assay against HIV infection (MT-4 cells, XTT). It is filed as cell-based. The following applies: for CC50/EC50: MT-4 cells, HIV-1IIIB. The protocol:
The protective effect of the test compound on MT-4 cells infected by human immunodeficiency virus type 1 IIIB strain (HIV-1IIIB) at different concentrations was evaluated.
The test compound was dissolved in DMSO at a concentration of 10 mM and stored at −20° C.
2) Test of the anti-HIV-1 IIIB infection activity of the compound: A starting concentration of 10 nM was used, and five serial five-fold dilutions were carried out on the compound. Each compound was present in the test medium at a concentration 2 folds of the final desired test concentration. 100 microliters (100 μL) of the solution of each concentration was added to triplicate wells for efficacy evaluation, and each concentration was added one well for colorimetric evaluation. AZT was purchased from Sigma Aldrich (St. Louis, MO, USA), and evaluated as a control compound in the antiviral assay.
Cell culture: MT-4 cells were passaged in a T-75 flask before use in the antiviral assay. On the day before the assay, cells were passaged in aliquots at a 1:2 ratio to ensure that they were in the exponential growth phase at the time of infection. Total cells and viable cells were quantified using a hemocytometer and trypan blue dye. The proportion of viable cells used for the assay was greater than 95%. The cells were resuspended in tissue culture medium at 5×10^4 cells per milliliter, and the resulting suspension was added to a drug-containing microtiter plate in a volume of 50 μL.
Virus preparation: The virus used for this assay was lymphotropic virus strain HIV-1IIIB. The viruses were amplified in CEM-SS cells for the preparation of virus stock solution. The pre-titered virus aliquot tube was taken from the refrigerator (−80° C.), and slowly thawed to room temperature in a biosafety cabinet. The viruses were diluted in the tissue culture medium. 50 μl of the diluted virus would produce 85% to 95% cell killing 6 days after infection. 50 μL of the diluted virus was added immediately to the microtiter plate containing cells and drugs.
Evaluation of the efficacy and toxicity of the compound with XTT: After culturing for six days in a 37° C., 5% CO2 incubator, tetrazolium dye XTT (2,3-bis(2-methoxy-4-nitro-5-sulfophenyl)-5-[(phenylamino)carbonyl]-2H-tetrazolium hydroxide) was added to the cell culture plate to conduct the test. The XTT solution was a 1 mg/ml RPMI1640 stock solution prepared on the same day. Phenazine methyl sulfate (PMS) solution at a concentration of 0.15 mg/ml was prepared in PBS, and stored in the dark at −20° C. XTT/PMS stock solution was prepared before use by adding 40 μl of PMS per milliliter of XTT solution. […] of XTT/PMS was added to each well of the plate, and the plate was re-incubated for 4 hours at 37° C. The plate was sealed with adhesive plate sealant, and gently shaked or inverted several times to mix the soluble formazan product. The absorbance was read at 450/650 nm.
For orientation: Formazan colour is commonly taken as a measure of viable cells.

Series [2] relates to common clinical integrase mutant strains (G140S/Q148R, Q148R/N155H, E138K, Q148H, R263K and Y143R/Q148H). Kind of series: Pseudovirus assay, common clinical integrase mutant strains (overall comparison). The class given is cell-based, HIV-1. The note with it: R263K and Y143R/Q148H pseudoviruses. On the procedure: The inhibitory activity against pseudoviruses containing common clinical mutation sites of HIV-1 integrase (G140S/Q148R, Q148R/N155H, E138K, Q148H, R263K and Y143R/Q148H) was determined.
Preparation of pseudovirus: Using the lentiviral plasmid pNL4-3-Luc-RE (HedgehogBio) as the backbone, an integrase point mutation plasmid was constructed. HEK293T cells (ATCC) were seeded in a 6-well plate at 5×10^5 cells per well. After 24 hours, when the cell density reached 60% to 80%, transfection was performed. pNL4-3-Luc-R-E- or pNL4-3-Luc-R-E--IN-mutant plasmid and lentivirus packaging plasmid pMD2.G (Beijing Zoman Bio) were added to the transfection reagent in a certain proportion. Cell transfection was performed according to the instructions of transfection reagent PEI25K (Maokang Biotechnology). After 48 hours, the supernatant was collected, centrifuged at 3000 rpm for 5 minutes, filtered with a 0.45 μm microporous membrane, aliquoted, and stored at −80° C. for later use. In HEK293T cells, the pseudovirus titer was determined based on luciferase activity.
Determination of antiviral activity of compounds: In a 96-well V-bottom plate, the compound to be tested was diluted with DMSO semi-logarithmically, and a compound solution 4 times the final concentration was prepared for later use. […]

The subject of series [3] is HIV-1 clinical isolates (RW/92/009, MW/93/959, UG/92/001). As to the kind of experiment: Clinical HIV-1 isolates in human PBMC (overall comparison). The following applies: RW/92/009, MW/93/959, UG/92/001 in human PBMC. It is filed as cell-based. On the procedure:
Preparation of virus: Clinical HIV-1 virus strains (Table 3) were obtained from the US NIH AIDS Research and Reference Reagent Library. PBMC were extracted from three fresh blood samples that were HIV and HBV seronegative, mixed and cultured, and PHA-P (phytohemagglutinin) was added to stimulate activation. The cells and virus were incubated at 37° C./5% CO2, and the cell culture supernatant after infection was collected and stored frozen at −80° C. Each viral titer was titrated in pooled PBMCs from three donors.
Assay of antiviral activity of compounds: Frozen PBMCs were resuspended in fresh culture medium (1×10^6 cells/mL), and added to a round-bottom 96-well plate ([…]). 100 μl of culture medium containing 2 times the final concentration of the compound was added to each well, and then 50 μL of virus solution was added (the final infection dose was MOI=0.002). After 7 days of culture, the reverse transcriptase activity in the supernatant was determined to evaluate HIV-1 replication. At the same time, a 96-well culture plate with only compounds and cells was prepared for the assay of compound cytotoxicity.

pEC50: −log10 of the molar value. Read-outs that look alike come from different tables or passages of the source.

For `C[C@H]1CO[C@@H]2Cn3cc(C(=O)NCc4ccc(F)cc4F)c(=O)c(O)c3C(=O)N12` [Cabotegravir, cabotegravir], the pEC50 in series [1] (Human immunodeficiency virus 1, MT4, 144 h, MT-4 cells infected by HIV-1IIIB, 6 days, XTT, read-out: EC50) is 8.62. In addition, in series [1], the CC50/EC50 was over 41.7.
With `O=C(NCc1ccc(F)cc1F)c1cn2c(c(O)c1=O)C(=O)N1[C@@H](CF)CO[C@@H]1C2` [Compound 2], the pEC50 in series [1] (Human immunodeficiency virus 1, IIIB, MT4, 144 h) is 9.05. Also, the CC50/EC50 in series [1] was over 112. Also, the “activity compared with cabotegravir” value was “better than that of cabotegravir with significant differences” in series [2] and “more active than cabotegravir” in series [3].

Broadly, the pEC50 is −log10 of the EC50, conventionally taken in molar units.

Values taken from patent US20250188091A1, “PYRIDONE COMPOUND HAVING INTEGRASE INHIBITORY ACTIVITY AND PHARMACEUTICAL USE THEREOF” (priority 2021, published 2025).
